What was measured:
[1] = system: Osteoclast; assay: Inhibition of RANKL-induced osteoclast differentiation in ICR mouse bone marrow after 48 hrs by TRAP assay; format: functional, cell-based
[2] = Cytotoxicity against ICR mouse osteoclasts by MTT assay; format: cell-based; settings: osteoclast

IC50 [1]	SMILES	inhibition [1]	Activity [2]
15.1 µM	COc1cc(C(=O)O[C@@H]2CN(C)CC[C@@H]2c2c(O)cc(O)c3c(=O)cc(C)oc23)ccc1O	Dose-dependent effect	Non-toxic
9.8 µM	COc1cc(/C=C/C(=O)O[C@@H]2CN(C)CC[C@@H]2c2c(O)cc(O)c3c(=O)cc(C)oc23)cc(OC)c1OC	Dose-dependent effect	Non-toxic

From ChEMBL document CHEMBL3259546, “Chrotacumines G-J, chromone alkaloids from Dysoxylum acutangulum with osteoclast differentiation inhibitory activity” (Bioorg Med Chem Lett, 2014)
